Reference: patent US20110245316A1, “PREVENTION OR DELAY OF ONSET OF ORAL MUCOSITIS” (SCICLONE PHARMACEUTICALS, INC., priority 2010, published 2011)

Tested on: oral mucositis in patients receiving chemoradiation for head and neck cancer
Assay: Phase 2 randomized, double-blind, placebo-controlled trial: onset of oral mucositis (WHO OM Scale) in patients receiving CT/RT
Assay type: in vivo, human
Description: OM is a painful, debilitating, and costly toxicity of different chemoradiotherapy (CT/RT) regimens used to treat head and neck cancer. This trial is a phase 2, randomized, double-blind, dose-ranging, placebo-controlled three-arm study in patients receiving CT/RT for the treatment of head and neck cancer, to assess the safety and tolerability of γ-D-glutamyl-L-tryptophan (SCV-07) as well as its efficacy in delaying the onset of severe OM as assessed by the WHO Oral Mucositis Scale.
The WHO OM Scale is the standard, validated instrument used in clinical trials to measure OM: Grade 0=none; Grade 1=erythema and soreness, no ulcers; Grade 2=ulcers, able to eat a solid diet; Grade 3=ulcers; requires a liquid diet; Grade 4=ulcers, not able to tolerate a solid or liquid diet, requires IV or tube feeding.
59 eligible patients with recently diagnosed, treatment naïve, pathologically-confirmed, non-metastatic squamous cell carcinoma of the oral cavity, oropharynx, hypopharynx or larynx were enrolled and treated with a concomitant regimen of CT/RT consisting of a continuous course of external beam irradiation (IMRT eligible) with a minimum cumulative dose of 50 Gray (Gy) and cisplatin monotherapy administered using standard weekly or tri-weekly dosing regimens (80-100 mg/m^2 administered on Days 0, 21 and 42) or weekly (30-40 mg/m^2). At least two ‘at risk’ intraoral sites were included in the radiation fields and received a cumulative RT dose of at least 50 Gy. Subjects were equally randomized to receive either placebo or one of two doses of γ-D-glutamyl-L-tryptophan (0.02 or 0.1 mg/kg) on each radiation day for up to 7 weeks.
Tables 2-7 summarize the statistics for the Full Analysis Set “FAS” (57 subjects), and the completer population (52 subjects), with respect to delay of onset of severe oral mucositis. Also see FIGS. 1 and 2.
SCV-07 efficacy, dosing and scheduling parameters were assessed in hamster models of acute, fractionated and concomitant chemoradiation (CRT). […] A multicenter, prospective, blinded, randomized trial evaluated SCV-07's ability to alter OM in CRT-treated HNC patients (n=57). Cytokine and gene microarray analyses were performed for samples obtained before and on the last radiation day.

[1] = 0.02 mg/kg vs placebo, Completer Population
[2] = 0.02 mg/kg, Completer Population
[3] = 0.02 mg/kg, Completer Population, at 30-<35 Gy
[4] = 0.02 mg/kg, Completer Population, at 35-<40 Gy
[5] = 0.02 mg/kg, Completer Population, at 40-<45 Gy
[6] = 0.02 mg/kg, Completer Population, at 45-<50 Gy
[7] = 0.02 mg/kg, Completer Population, at 50-<55 Gy
[8] = 0.02 mg/kg, Completer Population, at 55-<60 Gy
[9] = 0.02 mg/kg, Completer Population, at 65-<70 Gy
[10] = 0.02 mg/kg, Completer Population, at ≧70 Gy
[11] = 0.10 mg/kg vs placebo, Completer Population
[12] = 0.10 mg/kg, Completer Population

N[C@H](CCC(=O)N[C@@H](Cc1c[nH]c2ccccc12)C(=O)O)C(=O)O [SCV-07, γ-D-glutamyl-L-tryptophan]
Cox Regression Analysis of Time to Initial Occurrence of Sever OM, Hazard Ratio (95% CI) [1]: 1.884 (0.840, 4.225)
Cox Regression Analysis of Time to Initial Occurrence of Ulcerative OM, Hazard Ratio (95% CI) [1]: 0.737 (0.377, 1.444)
Cox Regression Analysis of Time to Initial Occurrence of Severe OM, Hazard Ratio (95% CI) (0.02 mg/kg vs placebo, FAS population): 1.989 (0.908, 4.357)
Cumulative Dose of RT (Gy) at Initial Onset of Severe OM, Max [2]: 70 Gy
Cumulative Dose of RT (Gy) at Initial Onset of Severe OM, Mean (SD) [2]: 43 (18.7) Gy
Cumulative Dose of RT (Gy) at Initial Onset of Severe OM, Median [2]: 34 Gy
Cumulative Dose of RT (Gy) at Initial Onset of Severe OM, Min [2]: 18 Gy
Cumulative Dose of RT (Gy) at Initial Onset of Ulcerative OM, Max [2]: 62 Gy
Cumulative Dose of RT (Gy) at Initial Onset of Ulcerative OM, Mean (SD) [2]: 24 (12.9) Gy
Cumulative Dose of RT (Gy) at Initial Onset of Ulcerative OM, Median [2]: 22 Gy
Cumulative Dose of RT (Gy) at Initial Onset of Ulcerative OM, Min [2]: 6 Gy
Cumulative Dose of Radiation (Gy) Prior to Initial Occurrence of Severe OM (Delay to Onset of Severe OM), K-M Estimate, Mean (SE) [2]: 42 (4.2) Gy
Cumulative Dose of Radiation (Gy) Prior to Initial Occurrence of Severe OM, K-M Estimate, 25%-75% [2]: 28-62 Gy
Cumulative Dose of Radiation (Gy) Prior to Initial Occurrence of Severe OM, K-M Estimate, Median (95% CI) [2]: 34 (28, 62) Gy
Cumulative Dose of Radiation (Gy) Prior to Initial Occurrence of Ulcerative OM (Delay to Onset of Ulcerative OM), K-M Estimate, Mean (SE) [2]: 24 (3.1) Gy
Cumulative Dose of Radiation (Gy) Prior to Initial Occurrence of Ulcerative OM, K-M Estimate, 25%-75% [2]: 18-30 Gy
Cumulative Dose of Radiation (Gy) Prior to Initial Occurrence of Ulcerative OM, K-M Estimate, Median (95% CI) [2]: 22 (18, 30) Gy
Time (Days) to Initial Occurrence of Sever OM, K-M Estimate, 25%-7% [2]: 18 to 42 days
Time (Days) to Initial Occurrence of Sever OM, K-M Estimate, Mean (SE) [2]: 28 (3.0) Days
Time (Days) to Initial Occurrence of Sever OM, K-M Estimate, Median (95% CI) [2]: 25 (18, 42) Days
Time (Days) to Initial Occurrence of Ulcerative OM, K-M Estimate, 25%-7% [2]: 10 to 20 days
Time (Days) to Initial Occurrence of Ulcerative OM, K-M Estimate, Mean (SE) [2]: 16 (2.2) Days
Time (Days) to Initial Occurrence of Ulcerative OM, K-M Estimate, Median (95% CI) [2]: 15 (10, 20) Days
Cum. Percent of Subjects with Ulcerative OM (WHO > 1) (0.02 mg/kg, Completer Population, at 5-<10 Gy): 6% (1%, 35%)
Cum. Percent of Subjects with Ulcerative OM (WHO > 1) (0.02 mg/kg, Completer Population, at 10-<15 Gy): 18% (6%, 45%)
Cum. Percent of Subjects with Ulcerative OM (WHO > 1) (0.02 mg/kg, Completer Population, at 15-<20 Gy): 41% (22%, 67%)
Cum. Percent of Subjects with Ulcerative OM (WHO > 1) (0.02 mg/kg, Completer Population, at 20-<25 Gy): 59% (37%, 81%)
Cum. Percent of Subjects with Ulcerative OM (WHO > 1) (0.02 mg/kg, Completer Population, at 25-<30 Gy): 76% (55%, 93%)
Cum. Percent of Subjects with Severe OM (WHO > 2) [3]: 53% (32%, 77%)
Cum. Percent of Subjects with Ulcerative OM (WHO > 1) [3]: 88% (69%, 98%)
Cum. Percent of Subjects with Severe OM (WHO > 2) [4]: 53% (32%, 77%)
Cum. Percent of Subjects with Ulcerative OM (WHO > 1) [4]: 94% (76%, 100%)
Cum. Percent of Subjects with Severe OM (WHO > 2) [5]: 59% (37%, 81%)
Cum. Percent of Subjects with Ulcerative OM (WHO > 1) [5]: 94% (76%, 100%)
Cum. Percent of Subjects with Severe OM (WHO > 2) [6]: 59% (37%, 81%)
Cum. Percent of Subjects with Ulcerative OM (WHO > 1) [6]: 94% (76%, 100%)
Cum. Percent of Subjects with Severe OM (WHO > 2) [7]: 65% (43%, 86%)
Cum. Percent of Subjects with Ulcerative OM (WHO > 1) [7]: 94% (76%, 100%)
Cum. Percent of Subjects with Severe OM (WHO > 2) [8]: 71% (49%, 89%)
Cum. Percent of Subjects with Ulcerative OM (WHO > 1) [8]: 94% (76%, 100%)
Cum. Percent of Subjects with Ulcerative OM (WHO > 1) (0.02 mg/kg, Completer Population, at 60-<65 Gy): 100% (76%, 100%)
Cum. Percent of Subjects with Severe OM (WHO > 2) (0.02 mg/kg, Completer Population, at 60->65 Gy): 78% (56%, 94%)
Cum. Percent of Subjects with Severe OM (WHO > 2) [9]: 78% (56%, 94%)
Cum. Percent of Subjects with Ulcerative OM (WHO > 1) [9]: 100% (76%, 100%)
Cum. Percent of Subjects with Ulcerative OM (WHO > 1) (0.02 mg/kg, Completer Population, at <5 Gy): 0% (0%, 0%)
Cum. Percent of Subjects with Severe OM (WHO > 2) (0.02 mg/kg, Completer Population, at <30 Gy): 35% (18%, 62%)
Cum. Percent of Subjects with Severe OM (WHO > 2) [10]: 78% (56%, 94%)
Cum. Percent of Subjects with Ulcerative OM (WHO > 1) [10]: 100% (76%, 100%)
Cumulative Dose of RT (Gy) at Initial Onset of Severe OM, Max (0.02 mg/kg, FAS population): 70 Gy
Cumulative Dose of RT (Gy) at Initial Onset of Severe OM, Mean (SD) (0.02 mg/kg, FAS population): 41 (18.0) Gy
Cumulative Dose of RT (Gy) at Initial Onset of Severe OM, Median (0.02 mg/kg, FAS population): 33 Gy
Cumulative Dose of RT (Gy) at Initial Onset of Severe OM, Min (0.02 mg/kg, FAS population): 18 Gy
Cumulative Dose of Radiation (Gy) Prior to Initial Occurrence of Severe OM (Delay to Onset of Severe OM), K-M Estimate, Mean (SE) (0.02 mg/kg, FAS population): 41 (3.8) Gy
Cumulative Dose of Radiation (Gy) Prior to Initial Occurrence of Severe OM, K-M Estimate, 25%-75% (0.02 mg/kg, FAS population): 28-62 Gy
Cumulative Dose of Radiation (Gy) Prior to Initial Occurrence of Severe OM, K-M Estimate, Median (95% CI) (0.02 mg/kg, FAS population): 34 (29, 59) Gy
Time (Days) to Initial Occurrence of Severe OM, K-M Estimate, 25%-7% (0.02 mg/kg, FAS population): 18 to 42 days
Time (Days) to Initial Occurrence of Severe OM, K-M Estimate, Mean (SE) (0.02 mg/kg, FAS population): 28 (2.7) Days
Time (Days) to Initial Occurrence of Severe OM, K-M Estimate, Median (95% CI) (0.02 mg/kg, FAS population): 24 (19, 41) Days
Cum. Percent of Subjects with Severe OM (WHO > 2) (0.02 mg/kg, FAS population, at 30-<35 Gy): 52% (32%, 75%)
Cum. Percent of Subjects with Severe OM (WHO > 2) (0.02 mg/kg, FAS population, at 35-<40 Gy): 58% (37%, 79%)
Cum. Percent of Subjects with Severe OM (WHO > 2) (0.02 mg/kg, FAS population, at 40-<45 Gy): 63% (42%, 83%)
Cum. Percent of Subjects with Severe OM (WHO > 2) (0.02 mg/kg, FAS population, at 45-<50 Gy): 63% (42%, 83%)
Cum. Percent of Subjects with Severe OM (WHO > 2) (0.02 mg/kg, FAS population, at 50-<55 Gy): 68% (47%, 87%)
Cum. Percent of Subjects with Severe OM (WHO > 2) (0.02 mg/kg, FAS population, at 55-<60 Gy): 73% (53%, 90%)
Cum. Percent of Subjects with Severe OM (WHO > 2) (0.02 mg/kg, FAS population, at 60-<65 Gy): 80% (59%, 94%)
Cum. Percent of Subjects with Severe OM (WHO > 2) (0.02 mg/kg, FAS population, at 65-<70 Gy): 80% (59%, 94%)
Cum. Percent of Subjects with Severe OM (WHO > 2) (0.02 mg/kg, FAS population, at >30 Gy): 36% (19%, 61%)
Cum. Percent of Subjects with Severe OM (WHO > 2) (0.02 mg/kg, FAS population, at ≧70 Gy): 80% (59%, 94%)
Cox Regression Analysis of Time to Initial Occurrence of Sever OM, Hazard Ratio (95% CI) [11]: 1.002 (0.433, 2.319)
Cox Regression Analysis of Time to Initial Occurrence of Ulcerative OM, Hazard Ratio (95% CI) [11]: 0.475 (0.225, 1.004)
Cox Regression Analysis of Time to Initial Occurrence of Severe OM, Hazard Ratio (95% CI) (0.10 mg/kg vs placebo, FAS population): 1.100 (0.484, 2.500)
Cumulative Dose of RT (Gy) at Initial Onset of Severe OM, Max [12]: 72 Gy
Cumulative Dose of RT (Gy) at Initial Onset of Severe OM, Mean (SD) [12]: 55 (14.8) Gy
Cumulative Dose of RT (Gy) at Initial Onset of Severe OM, Median [12]: 57 Gy
Cumulative Dose of RT (Gy) at Initial Onset of Severe OM, Min [12]: 20 Gy
Cumulative Dose of RT (Gy) at Initial Onset of Ulcerative OM, Max [12]: 68 Gy
Cumulative Dose of RT (Gy) at Initial Onset of Ulcerative OM, Mean (SD) [12]: 31 (16.6) Gy
